# Measurements: patent publication US12064402B2, “Binge behavior regulators” (Clearmind Medicine Inc., priority 2014, dated 2024)
# Legend:
# [1] = amount of alcoholic beverage drunk in a binge session after the drinking regulator; format: in vivo; details: 70 mg of drinking regulator; for amount of beer drunk in a binge session: reduced from 1.5 liter; for amount of wine drunk in a binge session: reduced from 1000 ml
# Method: In exemplary embodiments, administration of the amount of 70 mg of drinking regulator selected form Compound 1 or Compound 2 described herein reduced the amount of beer drunk in a binge session from 1.5 liter to 0.5 liter, or the amount of wine drunk in a binge session from 1000 ml to 250 ml.
# [2] = over six months, when used with counseling; cited from earlier work
compound,measurement,setting,value
"COc1ccc2c(c1)CC(N)C2 (centres unmarked) [Compound 1, 5-methoxy-2-aminoindan]",amount of beer drunk in a binge session,[1],0.5 L
same,amount of wine drunk in a binge session,[1],250 mL
"COc1cc2c(cc1OC)CC(N)C2 [Compound 2, 5,6-dimethoxy-2-aminoindan]",amount of beer drunk in a binge session,[1],0.5 L
same,amount of wine drunk in a binge session,[1],250 mL
C=C1CC[C@@]2(O)[C@H]3Cc4ccc(O)c5c4[C@@]2(CCN3CC2CC2)[C@H]1O5 [Nalmefene],cut drinking,[2],61%
